Test results from PMC3517478 (BMC Neurology, 2012).
Positions count from the first letter of the chain named.

Legend:
[1] = test system: α1β glycine receptors (wild-type); design: method as in earlier work; conditions: heterologously expressed α1β wild-type (WT) glycine receptors; cited from earlier work
[2] = biological target: T1, human α1-GlyR (WT) expressed in HEK 293 cells (Homo sapiens, UniProt P23415); experiment: Whole-cell patch-clamp, positive allosteric modulation of glycine (EC20) induced currents; assay type: cell-based; design: expressed in transfected cells; host or cells: HEK 293 (transient, electroporation; pCIS2 vector; co-transfected EGFP as a separate marker)
T1 sequence (P23415 29-457): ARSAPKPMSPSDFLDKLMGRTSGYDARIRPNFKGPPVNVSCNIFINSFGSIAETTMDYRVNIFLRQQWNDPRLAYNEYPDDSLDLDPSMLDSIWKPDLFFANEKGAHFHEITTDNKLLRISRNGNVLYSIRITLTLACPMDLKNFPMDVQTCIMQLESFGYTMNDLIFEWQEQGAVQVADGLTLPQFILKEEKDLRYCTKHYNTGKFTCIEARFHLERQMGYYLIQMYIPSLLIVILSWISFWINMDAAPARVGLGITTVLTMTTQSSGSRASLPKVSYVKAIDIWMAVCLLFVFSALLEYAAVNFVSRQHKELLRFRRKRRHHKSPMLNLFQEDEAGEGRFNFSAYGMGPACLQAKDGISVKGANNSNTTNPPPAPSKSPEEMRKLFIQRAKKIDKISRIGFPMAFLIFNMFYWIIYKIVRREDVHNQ
Protocol: (§1) Drug-containing vials were vigorously vortexed for 30min.
(§2) A new cell was used for each protocol and at least four different experiments were performed for each condition. The concentration of the diluent EtOH corresponding to the highest drug concentration used was 17150 μM.
(§3) Currents were filtered at 2 kHz.
Currents were normalized to their own maximum response.

[3] = biological target: T2, human α1S267I-GlyR expressed in HEK 293 cells (Homo sapiens, UniProt P23415, S295I); experiment: Whole-cell patch-clamp, direct activation in the absence of glycine; assay type: cell-based; design: expressed in transfected cells; host or cells: HEK 293 (transient, electroporation; pcDNA1amp vector); conditions: S267I, 0.01-1000 μM
T2 sequence (P23415 29-457 S295I): T1 sequence (P23415 29-457) with S267I
Protocol: as §1, §2, §3

[4] = biological target: T3, human α1R271L-GlyR expressed in HEK 293 cells (Homo sapiens, UniProt P23415, R299L); experiment: as above; assay type: cell-based; design: expressed in transfected cells; host or cells: HEK 293 (transient, electroporation; pcDNA1amp vector); conditions: R271L, 0.01-1000 μM
T3 sequence (P23415 29-457 R299L): T1 sequence (P23415 29-457) with R271L
Protocol: as §1, §2, §3

[5] = biological target: T4, human α1R271K-GlyR expressed in HEK 293 cells (Homo sapiens, UniProt P23415, R299K); experiment: as above; assay type: cell-based; design: expressed in transfected cells; host or cells: HEK 293 (transient, electroporation; pcDNA1amp vector); conditions: R271K
T4 sequence (P23415 29-457 R299K): T1 sequence (P23415 29-457) with R271K
Protocol: as §1, §2, §3

WT glycine receptor = conditions: on cell mode, 4 s drug application; cited from earlier work
[6] = test system: human alpha1 glycine receptor; conditions: human alpha1 glycine receptors in HEK293; cited from earlier work

Row | Molecule | potency relative to propofol in enhancing glycine induced currents [1] [fold] | increased potency to positively modulate glycine induced chloride currents in comparison to propofol ([2]; WT glycine receptors, propofol value from ref 21) | positive allosteric modulation nH ± SEM ([2]; WT, EC20 glycine 20 μM) | EC50 ([2]; WT, co-applied with sub-saturating (EC20) glycine 20 μM, read-out: positive allosteric modulation EC50 ± SEM) [nM] | positive allosteric modulation, potentiation [% of peak current amplitude] ± SEM ([2]; WT, maximal positive allosteric modulation, EC20 glycine 20 μM) [%] | direct activation [3] | direct activation [4] | direct activation nH [5] | mean maximal activation (direct) [5] [%] | EC50 ([5]; 0.01-1000 μM, n = 5) [µM] | rise time (WT glycine receptor) [ms] | Hill slope nH [6]
1 | 4-chloro-2,6-dimethylphenol [4-chloropropofol] | ~1000 | more than 1000 fold | 2.0 ± 2.8 | 0.08 ± 0.02 | 269 ± 88 | completely insensitive | completely insensitive | 0.41 ± 0.15 | 77.2 ± 4.2 | 16.4 ± 22.3 | – | –
2 | NCC(=O)O [glycine] | – | – | – | – | – | – | – | – | – | – | 0.4 | 2.4
